“Also recorded” adds a separate entry of the source. Like-named read-outs stand apart in the source and are kept apart here.
Tests used:
[1] = pH of excipient-containing incubating solutions; format: physicochemical
Experimental: (§1) For each concentration of tested compound, pH and osmolarity parameters were measured.

[2] = system: ARPE-19 cells; experiment: MTT cell viability assay on ARPE-19 cells; conditions: for MTT IC50 (%): ARPE-19 cells, summary Table 3; for Reduction of cell survival: 24, 48 and 72 hour time points
Description: (§2) Cell viability and cell morphology were examined to evaluate the toxicity of excipients on retinal pigment epithelial cells. The human retina cell line used in these experiments is the ARPE-19 cell line (human adult-derived retinal pigmented epithelial cells). […] They form tight-junctions with transepithelial resistance of monolayers (Dunn K C et al., supra). From a molecular standpoint, it appears that ARPE-19 express a huge pattern of genes similar to those expressed by human RPE from fresh explant which could account for their physiological function (Klimanskaya I. et al., “Derivation and comparative assessment of retinal pigment epithelium from human embryonic stem cells using transcriptomics”, Cloning and Stem Cells, 2004, 6(3):217-45).
(§3) ARPE-19 cells are widely used as a retinal model that resemble physiological properties of RPE cells. Similar methods of culturing ARPE-19 cells and cytotoxicity assays can be found in Yeung et al., “Cytotoxicity of triamcinolone on cultured human retinal pigment epithelial cells: comparison with dexamethasone and hydrocortisone”, Jpn J. Ophthalmol, 2004; 48:236-242. Cell viability and cell morphology were examined using conventional colormetric and visual methods. Viability and morphology measurements were obtained at 24 hours, 48 hours, and 72 hours after exposure to an excipient composition.
(§4) To assess cell viability, mitochondrial metabolism was quantified through conventional colorometric assays (i.e., the MTT assay). This calorimetric assay utilizes 3-(4,5-dimethylthiazol-2-yl)-2,5-diphenyltetrazolium bromide (MTT) and correlates mitochondrial metabolism and cell viability through measurement of dehydrogenase activity which converts a substrate into crystal. More specifically, the assay measures the activity of living cells through mitochondrial dehydrogenases. When dissolved in culture cell medium, MTT solution appears dark orange. Mitochondrial dehydrogenases of viable cells degrade MTT by cleaving the tetrazolium ring yielding to formation of a purple formazan crystal, which is insoluble in water. Crystals are subsequently dissolved in isopropanol solution. A resulting purple solution is spectrophotometrically measured. Cell viability is relative to amount of formazan and calculated as a percentage of remaining treated compared to non-treated cells.
(§5) Results from the MTT assay were expressed as a percentage of cell viability calculated using the following equation: % cell viability=ODtest/ODcontrol×100.
(§6) For each experiment, one concentration was performed in triplicate. Each point was spectrophotometrically read twice. Average of readings was calculated, then average from these 3 values was determined.
(§7) After 3 experiments were independently completed under the same conditions, a graph was plotted with cell viability expressed as a function of concentration (dose response) and for various incubation period (time course). The IC50 was then estimated based on the graphed data.
(§8) More specifically, cell density in 24-multiwell plates was observed on the day of the experiment to check if confluence of the cells was reached. Aliquots of MTT concentrated solutions were removed from a freezer at −20° C. and thawed at room temperature. Cell medium was warmed at 37° C. before use. Appropriated tubes for diluting compounds were prepared. Higher concentrations of each excipient agent was prepared. Serial dilution was then performed in cell medium (DMEM:F12+10% FBS).
(§9) Cell culture medium in the 24-well plate was removed using vacuum-pump. Cells were then stimulated with 0.5 ml final volume for each concentration of one given excipient agent. Distribution of the excipient-containing solution was performed using automated pipet-aid in sterile environment (under PSM) or not depending on time of compounds and duration of incubation.
(§10) After stimulation, cells were replaced in a CO2 incubator for the required time of exposure.

[3] = system: ARPE-19 cells; format: cell-based
Experimental: Cell morphology was visualized using light microscopy. Cell morphology observation using light microscopy permits determination of (i) cell number and density and (ii) whether or not cells in contact with an excipient agent display modified phenotype compared to a non-treated population of cells.
Cell morphology was analyzed in parallel by semi-quantitative scoring ranging from 5 to 1, from basal to lethal phenotype respectively, as shown in FIG. 23.
More specifically, cells were removed from an incubator for examination. Morphological shape of cells was visualized using a light microscope and CCD camera. Every 3 wells of a given concentration was observed through image analysis software. Then, a representative photograph describing the average appearance of cells was saved. The supernatant was either, kept for further predefined experiments to perform, or removed using vacuum-pump.
Resulting semi-quantitative scoring is represented as a function of time course and dose response. Score 5 : wild type phenotype of non-treated cells, 100% confluent adherent cells. This phenotype very much vary following post-seeding time. For example, at confluence ARPE-19 cells at 1 day appear well defined with visible outer membrane and dark grey cytoplasm. After 3 days of confluence, limits between cells become less visible and cells adopt a more hexagonal shape and constitute an epithelium-like uniform dense structure. Score 4: density <100%. Cell shape has changed, some spaces are present between cells, few cells possibly detached. Score 3: 80% <Cell density <40%. Spaces are sometimes present among cells, areas appears confluent while in others, cells detached. General cell shape starts showing non negligible alterations. Score 2: Cell density <50%. Cells adopt exclusively stressed appearance, presence of mass dead floating cells. Score 1: Cell density <10%. Presence of almost exclusively dead cells.
Based on quotation, each condition of the applied compound was given a score which allow to a morphology evolution profile to be prepared, ie. cell morphology as a function of compound concentration and time of exposure. […]

[4] = Osmolarity of excipient-containing incubating solutions; format: physicochemical
Experimental: Osmolarity was measured using osmometer type 13/13DR from Roebling (Berlin, GR).
as §1

[5] = in vitro; conditions: human, Cell viability
Description: as §2, §3, §4, §5, §6, §7, §8, §9, §10

## OCc1ccccc1 [Benzyl alcohol, benzyl alcohol]
[1]; 0.05% in culture medium
  pH of excipient dilution: 8
[1]; 0.1% in culture medium
  pH of excipient dilution: 8.1
[1]; 0.5% in culture medium
  pH of excipient dilution: 8
[1]; 1% in culture medium
  pH of excipient dilution: 7.9
[1]; 2% in culture medium
  pH of excipient dilution: 8
[1]; […] in culture medium
  pH of excipient dilution: 7.9
[2]
  MTT IC50 (%): 0.07%
[2]; human, 72 h, 0.05 %
  Cell viability, experiments 1, 2, 3: 50.8%
[3]
  Living cells (observation): no living cells survived
[3]; ARPE-19, estimated from morphology data
  IC50 based on cell morphology: about 0.07%
[3]; human
  Morphology limit concentration (%): 0.07%
[3]; human, 24 h, 0.05 %
  Cell morphology score, Mean: 3.3
[3]; human, 24 h, 0.1 %
  Cell morphology score, Mean: 3.0
[3]; human, 24 h, 0.5 %
  Cell morphology score, Mean: 1.0
[3]; human, 24 h, 1 %
  Cell morphology score, Mean: 1.0
[3]; human, 24 h, 2 %
  Cell morphology score, Mean: 1.0
[3]; human, 24 h, […]
  Cell morphology score, Mean: 1.0
[3]; human, 48 h, 0.05 %
  Cell morphology score, Mean: 3.7
[3]; human, 48 h, 0.1 %
  Cell morphology score, Mean: 3.0
[3]; human, 48 h, 0.5 %
  Cell morphology score, Mean: 1.0
[3]; human, 48 h, 1 %
  Cell morphology score, Mean: 1.0
[3]; human, 48 h, 2 %
  Cell morphology score, Mean: 1.0
[3]; human, 48 h, […]
  Cell morphology score, Mean: 1.0
[3]; human, 72 h, 0.05 %
  Cell morphology score, Mean: 3.3
[3]; human, 72 h, 0.1 %
  Cell morphology score, Mean: 3.0
[3]; human, 72 h, 0.5 %
  Cell morphology score, Mean: 1.0
[3]; human, 72 h, 1 %
  Cell morphology score, Mean: 1.0
[3]; human, 72 h, 2 %
  Cell morphology score, Mean: 1.0
[3]; human, 72 h, […]
  Cell morphology score, Mean: 1.0
[4]; 0.05% in culture medium
  Osmolarity of excipient dilution: 293 mOsm
[4]; 0.1% in culture medium
  Osmolarity of excipient dilution: 307 mOsm
[4]; 0.5% in culture medium
  Osmolarity of excipient dilution: 347 mOsm
[4]; 1% in culture medium
  Osmolarity of excipient dilution: 398 mOsm
[4]; 2% in culture medium
  Osmolarity of excipient dilution: 493 mOsm
[4]; […] in culture medium
  Osmolarity of excipient dilution: 444 mOsm

## CCCCCCCC/C=C\CCCCCCCC(=O)OCCOCC(OCCO)C1OCC(OCCO)C1OCCO (stereo not drawn) [Polysorbate 80, polysorbate 80]
[1]; 0.01% in culture medium
  pH of excipient dilution: 7.5
[1]; 0.02% in culture medium
  pH of excipient dilution: 7.6
[1]; 0.04% in culture medium
  pH of excipient dilution: 7.5
[1]; 0.06% in culture medium
  pH of excipient dilution: 7.5
[1]; 0.08% in culture medium
  pH of excipient dilution: 7.5
[1]; 0.1% in culture medium
  pH of excipient dilution: 7.6
[2]; 0.1% (w/v)
  Cell survival: substantially zero cell survival
[2]; 0.1% (w/v), listed as Tween80
  Cell survival: lethality
[5]; Mean (%)
  viability at 24 h, 0.01 %: 93.5%
  viability at 24 h, 0.02 %: 98.6%
  viability at 24 h, 0.04 %: 104%
  viability at 24 h, 0.06 %: 101%
  viability at 24 h, 0.08 %: 82.3%
  viability at 24 h, 0.1 %: 3.9%
  viability at 48 h, 0.01 %: 110%
  viability at 48 h, 0.02 %: 118%
  viability at 48 h, 0.04 %: 125%
  viability at 48 h, 0.06 %: 128%
  viability at 48 h, 0.08 %: 72.9%
  viability at 48 h, 0.1 %: 0.5%
  viability at 72 h, 0.01 %: 120%
  viability at 72 h, 0.02 %: 126%
  viability at 72 h, 0.04 %: 142%
  viability at 72 h, 0.06 %: 157%
  viability at 72 h, 0.08 %: 74.8%
  viability at 72 h, 0.1 %: 0.6%
[5]; experiments 1, 2, 3
  viability at 24 h, 0.01 %: 90.3%
  viability at 24 h, 0.02 %: 91.8%
  viability at 48 h, 0.01 %: 109%
  viability at 48 h, 0.02 %: 122%
  viability at 48 h, 0.04 %: 126%
  viability at 72 h, 0.01 %: 122%
  viability at 72 h, 0.02 %: 129%
  viability at 72 h, 0.04 %: 138%
  viability at 72 h, 0.06 %: 148%
[4]; 0.01% in culture medium
  Osmolarity of excipient dilution: 310 mOsm
[4]; 0.02% in culture medium
  Osmolarity of excipient dilution: 307 mOsm
[4]; 0.04% in culture medium
  Osmolarity of excipient dilution: 313 mOsm
[4]; 0.06% in culture medium
  Osmolarity of excipient dilution: 346 mOsm
[4]; 0.08% in culture medium
  Osmolarity of excipient dilution: 390 mOsm
[4]; 0.1% in culture medium
  Osmolarity of excipient dilution: 523 mOsm

## hyaluronic acid [HA]
[2]
  Cell viability: ~25%

## hydroxypropyl beta-cyclodextrin [Kleptose®]
[1]; 0.1% in culture medium
  pH of excipient dilution: 7.6
[1]; 0.5% in culture medium
  pH of excipient dilution: 7.6
[1]; 1% in culture medium
  pH of excipient dilution: 7.5
[1]; 5% in culture medium
  pH of excipient dilution: 7.5
[1]; 10% in culture medium
  pH of excipient dilution: 7.5
[1]; 20% in culture medium
  pH of excipient dilution: 7.6
[2]
  Decrease of cell viability: about 40%
  MTT IC50 (%): 2.2-2.5%
[2]; 0.1% (w/v)
  Reduction of cell survival: 20-30%
[2]; 1% (w/v)
  Cell survival (% of the initial value): about 70%
[2]; 5% (w/v), 24 h
  Cell survival: complete disappearance of living cells; also recorded: about 20%
[2]; ARPE-19, all incubation times 24-72 h, estimated from graph
  IC50 (50% cell viability inhibition, MTT): about 2.2%
[3]
  Morphology limit concentration (%): 2.6-3%
[4]; 0.1% in culture medium
  Osmolarity of excipient dilution: 309 mOsm
[4]; 0.5% in culture medium
  Osmolarity of excipient dilution: 317 mOsm
[4]; 1% in culture medium
  Osmolarity of excipient dilution: 325 mOsm
[4]; 5% in culture medium
  Osmolarity of excipient dilution: 375 mOsm
[4]; 10% in culture medium
  Osmolarity of excipient dilution: 459 mOsm
[4]; 20% in culture medium
  Osmolarity of excipient dilution: 635 mOsm

## hydroxypropyl gamma-cyclodextrin [Cavasol]
[1]; 0.1% in culture medium
  pH of excipient dilution: 7.6
[1]; 0.5% in culture medium
  pH of excipient dilution: 7.6
[1]; 1% in culture medium
  pH of excipient dilution: 7.6
[1]; 5% in culture medium
  pH of excipient dilution: 7.6
[1]; 10% in culture medium
  pH of excipient dilution: 7.6
[1]; 20% in culture medium
  pH of excipient dilution: 7.6
[2]
  Effect on both cell parameters (viability, morphology): no measurable effect on both cell parameters
  Viable cells: approximately 80%
[2]; 0.05 to 10%, after recovery (later than 24 h)
  Percentage of living cells: > 80%
[2]; 0.1% (w/v)
  Reduction of cell survival: ≤ 10%
[2]; 10% (w/v)
  Cell survival (% of the initial value): about 80%
[2]; at the tested concentrations and incubation times
  IC50 (cell viability), statement in words: not possible to determine the IC50

## hydroxypropylmethyl cellulose [HPMC]
[2]
  Cell viability, experiment 3: 77.4%
  Decrease of cell viability: 20-40%

## sulfobutyl ether 4 beta-cyclodextrin [Captisol]
[1]; 0.1% in culture medium
  pH of excipient dilution: 7.6
[1]; 0.5% in culture medium
  pH of excipient dilution: 7.6
[1]; 1% in culture medium
  pH of excipient dilution: 7.6
[1]; 5% in culture medium
  pH of excipient dilution: 7.6
[1]; 10% in culture medium
  pH of excipient dilution: 7.7
[1]; 20% in culture medium
  pH of excipient dilution: 7.7
[2]; 0.1% (w/v)
  Reduction of cell survival: 10-20%
[2]; 5% (w/v)
  Cell survival (% of the initial value): 70-80%
[2]; 10% (w/v), 24 hour time point
  Cell survival: 50-60%
[4]; 0.1% in culture medium
  Osmolarity of excipient dilution: 310 mOsm
[4]; 0.5% in culture medium
  Osmolarity of excipient dilution: 318 mOsm
[4]; 1% in culture medium
  Osmolarity of excipient dilution: 333 mOsm
[4]; 5% in culture medium
  Osmolarity of excipient dilution: 408 mOsm
[4]; 10% in culture medium
  Osmolarity of excipient dilution: 518 mOsm
[4]; 20% in culture medium, listed as Sulfobutylether 4 beta-CD
  Osmolarity of excipient dilution: far exceeds physiological osmolarity range
[4]; 20% in culture medium, listed as Sulfobutylether 4beta-CD
  Osmolarity of excipient dilution: 710 mOsm

From patent US20050250737A1, “Therapeutic ophthalmic compositions containing retinal friendly excipients and related methods” (Allergan, Inc., priority 2003, published 2005)
